The values that follow come from patent US12239643B2, “Therapeutic agent for inflammatory diseases, autoimmune diseases, fibrotic diseases, and cancer diseases” (MEIJI SEIKA PHARMA CO., LTD., priority 2018, dated 2025).

Structures are written as SMILES.

One experiment has as its system IL-5. The experiment is described as follows: Cytokine suppression using human peripheral blood mononuclear cells: IL-5. The settings on record: human PBMC, CD3 antibody and CD28 antibody; read-out: IL-5 Inhibitory Activity, Human PBMC (Test Example 4). Format: cell-based. As for the experimental part:
First, peripheral blood mononuclear cells (PBMC) were separated from whole blood by specific gravity centrifugation. Then, the isolated peripheral blood mononuclear cells were added to RPMI-1640 medium (containing 10% fetal bovine serum, penicillin, streptomycin, L-glutamine, and 2-mercaptoethanol), and cultured in a 96-well plate at 37° C. under 5% CO2 for 0 to 1 hour. The test compound dissolved in dimethyl sulfoxide was added to each well, followed by further culture at 37° C. under 5% CO2 for 1 hour. A medium containing only dimethyl sulfoxide instead of the test compound was added to the control well. […]
The measurement results obtained by measuring the TNFα inhibitory activity and IL-5 inhibitory activity (50% inhibitory concentration) of the test compounds by the above method were evaluated in accordance with the following evaluated basis; A: less than 10 nM, B: 10 nM or more and less than 100 nM, and C: 100 nM or more. In addition, the measurement results obtained by measuring the IL-17A inhibitory activity, IL-23 inhibitory activity, IL-4 inhibitory activity, and IL-13 inhibitory activity (50% inhibitory concentration) of the test compounds were evaluated in accordance with the following evaluated basis; A: less than 500 nM, B: 500 nM or more and less than 5000 nM, and C: 5000 nM or more.

The test system of a further experiment is Daoy (brain tumor). The experiment is described as follows: Antitumor activity: growth inhibition of Daoy. Format: cell-based. The settings on record: Homo sapiens, 120 h, culturing for 5 days, read-out: 50% growth inhibitory concentration. As for the experimental part:
As antitumor activity, 50% growth inhibitory concentration of various cancer cells (CEM-C1 (blood cancer (leukemia)), SU-DHL-4 (blood cancer (lymphoma)), A549 (lung cancer), HCT-116 (colorectal cancer), and Daoy (brain tumor)) was calculated as follows. First, each of the above cancer cells was seeded on a 384-well plate and cultured overnight at 37° C. under 5% CO2. After that, the test compound was added at various concentrations on the next day, and each number of cells was measured after culturing for 5 days. The 50% growth inhibitory concentration was defined as the test compound concentration at which the number of cells measured is an intermediate value between the number of cells after culture for 5 days under the same conditions without the addition of the test compound and the number of cells at the time of seeding (before the start of culture). The measurement results obtained by measuring the 50% growth inhibitory concentration of the test compound by the above method were evaluated in accordance with the following evaluated basis; A: less than 10 μM, B: 10 μM or more and less than 50 μM, and C: 50 μM or more. As a result of using apremilast as the test compound, the evaluation was C in all cancer cells. On the other hand, as a result of using the compound obtained in Example 248 as the test compound, the evaluation was A in all cancer cells.

In experiment [1] the test system is bleomycin-induced pulmonary fibrosis, C57BL/6J mice. The experiment is described as follows: Mouse bleomycin model. It is filed as in vivo. The settings on record: oral once a day for 14 days, day 21 after BLM administration, compared with nintedanib. The method, then: Evaluation was carried out using female C57BL/6J mice (7 weeks of age). Bleomycin (BLM) at a concentration of 2 mg/kg was administered oropharyngeally under anesthesia to induce pulmonary fibrosis. Six days after BLM administration, the group was divided into experimental groups so as to achieve a uniform weight loss rate from the BLM administration day. The test compound dissolved or suspended in 0.5% w/v methylcellulose (0.5% MC) was orally administered (10 μL/g) at a concentration of 10 to 100 mg/kg once a day for 14 days from day 7 after the administration of BLM. On day 21 after BLM administration, blood was collected under anesthesia, and the lungs were fixed with a 10% neutral buffered formalin solution and treated for histological examination. To evaluate the degree of fibrosis, the concentration of serum surfactant protein D (SP-D) was measured by the ELISA method.

The test system of experiment [2] is substance P-induced pruritus behavior, ICR mice. Briefly: Mouse pruritus model. Format: in vivo. The following applies: oral, substance P intradermally 2 hours after administration. As for the experimental part:
Evaluation was carried out using male ICR mice (5 to 7 weeks of age). A micro magnet was embedded under the skin of both hind limbs of the mice in advance, and the hair on the back of the mouse neck was shaved. On the day of the test, the test compound was dissolved or suspended in 0.5% w/v methylcellulose (0.5% MC) and orally administered. Two hours after administration of the test compound, 50 μL of 300 nM substance P dissolved in saline was intradermally administered to the back of the mouse neck. The blank was a non-pruritus-induced group orally administered with 0.5% MC instead of the test compound and intradermally administered with saline instead of substance P, and the pruritus induction control was a group orally administered with 0.5% MC instead of the test compound. The pruritus measurement system for small animals, MicroAct II, automatically measured pruritus behavior for 30 minutes immediately after intradermal administration.

In experiment [3] the test system is DSS-induced colitis, C57BL/6J mice. The experiment is described as follows: DSS-induced mouse colitis model. It is filed as in vivo. The following applies: oral once a day, DSS in drinking water. As for the experimental part: Evaluation was carried out using male C57BL/6J mice (7 weeks of age). The mice were allowed to freely drink dextran sodium sulfate (DSS) dissolved in water for 5 days, and then allowed to freely drink water for 4 to 5 days. The test compound was dissolved or suspended in 0.5% w/v methylcellulose (0.5% MC) and orally administered once a day from the first day. The blank was a non-inflammation-induced group orally administered with 0.5% MC instead of the test compound and allowed to freely drink water instead of DSS, and the inflammation-induced control was a group orally administered with 0.5% MC instead of the test compound. The colitis inhibitory effect was evaluated by the disease activity index (DAI) score.

For `CC(C)(O)C(F)(F)Oc1ccc(-c2nccs2)c2oc(N3CC4CC(C3)N4)nc12` [Example 248, 1-((2-(3,6-Diazabicyclo[3.1.1]heptan-3-yl)-7-(thiazol-2-yl)benzo[d]oxazol-4-yl)oxy)-1,1-difluoro-2-methylpropan-2-ol], in the experiment on IL-5, the IC50 was less than 0.01 µM. For the same molecule, the IC50 in the experiment on Daoy (brain tumor) is less than 10 µM. Besides, in experiment [1], the pulmonary fibrosis score result is “equal to or lower than those of nintedanib” and the “serum SP-D concentration” value is “equal to or lower than those of nintedanib”. The “scratching behavior (pruritus behavior for 30 minutes)” value in experiment [2] is “suppressed mouse scratching behavior at a lower concentration than apremilast”. Besides, the “disease activity index (DAI) score” value in experiment [3] was “suppressed the DAI score at a lower concentration than that of apremilast”.

In the case of `CCOc1cc([C@@H](CS(C)(=O)=O)N2C(=O)c3cccc(NC(C)=O)c3C2=O)ccc1OC` [apremilast, reference compound], the IC50 in the experiment with IL-5 was greater than 0.1 µM; in the experiment on Daoy (brain tumor), no less than 50 µM.
